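The compound was tested at five concentrations on cells cultured in 96-well plates, with a 48-hour exposure period. GI50 marks 50% less growth.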 Calls of active or inactive are those of the source. No stated cut-off is given here; in the data, active = GI50 up to about 1.1 µM and inactive = higher.

Test systems include CAKI-1; HCT-116; NCI/ADR-RES; NCI-H460; HCT-15; NCI-H522; IGROV-1; HL-60; RXF 393; HCC 2998; T47D; M14; A498; SF-295; SN12C; COLO 205; MDA-MB-435; LOX IMVI; SF-539; SR.
Common to all, as to assay: NCI anticancer screen, dose series, 48 h

For `Nc1cc(O)c2c(c1O)C(=O)C=CC2=O`, the GI50 was 18.6 µM (inactive) in the assay on CAKI-1; 5.19 µM (inactive) with HCT-116; 10 µM (inactive) in the assay on NCI/ADR-RES; 9.57 µM (inactive) in the assay with NCI-H460; 7.41 µM in the assay on HCT-15; 5.9 µM (inactive) with NCI-H522. Moreover, the GI50 in the assay with IGROV-1 is 15.2 µM (inactive); in the assay on HL-60, 2.21 µM (inactive); in the assay with RXF 393, 6.93 µM (inactive); with HCC 2998 it was 9.31 µM (inactive); with T47D it was 13.2 µM (inactive); in the assay with M14, 7.76 µM (inactive). Also, the GI50 with A498 was 22.2 µM (inactive); with SF-295 it was 17.3 µM (inactive); in the assay with SN12C it was 16.1 µM (inactive); in the assay with COLO 205, 6.62 µM (inactive); in the assay with MDA-MB-435, 6.1 µM (inactive); in the assay with LOX IMVI, 5.58 µM (inactive). Moreover, the GI50 in the assay with SF-539 was 18.9 µM (inactive).

With `CCOc1ccc(N/C(=C(/C(Cl)=C(/Cl)NC(C)(C)C)[N+](=O)[O-])n2nnc3ccccc32)cc1`, the GI50 is 19.3 µM (inactive) in the assay with CAKI-1; 18.6 µM (inactive) in the assay on HCT-116; 32.4 µM (inactive) in the assay on NCI/ADR-RES; 76.9 µM (inactive) with NCI-H460; 20.4 µM with HCT-15; 20.1 µM (inactive) with RXF 393. Besides, the GI50 in the assay with HCC 2998 was > 100 µM (inactive); in the assay with T47D, 15.5 µM (inactive); in the assay with M14, > 100 µM (inactive); in the assay with A498 it was 91.6 µM (inactive); in the assay on SF-295, 28.1 µM (inactive); with SN12C, 34 µM (inactive). The GI50 with COLO 205 was 21.1 µM (inactive); with MDA-MB-435 it was 18.2 µM (inactive); with SF-539, 24.1 µM (inactive).

As to `CC(=O)NC(C)c1ccc(/N=N/N2CCCC2)cc1` (stereo unspecified), the GI50 in the assay with CAKI-1 is > 100 µM (inactive); in the assay on HCT-116, > 100 µM (inactive); in the assay on NCI/ADR-RES, > 100 µM (inactive); in the assay on HCT-15 it was more than 100 µM; in the assay on NCI-H522, > 100 µM (inactive); in the assay with IGROV-1, > 100 µM (inactive). Further, the GI50 in the assay with HL-60 was 27.4 µM (inactive); with RXF 393, > 100 µM (inactive); in the assay on HCC 2998, > 100 µM (inactive); in the assay with T47D it was > 100 µM (inactive); in the assay with M14, > 100 µM (inactive); in the assay on A498, > 100 µM (inactive). The GI50 in the assay with SF-295, in the assay with SN12C, in the assay on COLO 205, with MDA-MB-435, in the assay on LOX IMVI and with SF-539 was > 100 µM (inactive) in each case.

For the compound `Nc1cc2nc(-c3ccccc3)cn2cn1`, the GI50 with CAKI-1 is 89.9 µM (inactive); in the assay with HCT-116 it was > 100 µM (inactive); in the assay on NCI/ADR-RES, > 100 µM (inactive); with NCI-H460 it was 99.1 µM (inactive); in the assay with HCT-15, more than 100 µM; in the assay on HL-60, > 100 µM (inactive). Further, the GI50 in the assay on RXF 393 was 50.9 µM (inactive); with T47D it was > 100 µM (inactive); with M14 it was > 100 µM (inactive); with A498, 27.9 µM (inactive); in the assay on SF-295 it was > 100 µM (inactive); with SN12C, 85.1 µM (inactive). Also, the GI50 in the assay on COLO 205 is > 100 µM (inactive); in the assay on MDA-MB-435, > 100 µM (inactive); in the assay on LOX IMVI, 84.5 µM (inactive); with SF-539, > 100 µM (inactive).

As for `N#CSCc1cccc(Nc2cc(=O)[nH]c(=O)[nH]2)c1`, the GI50 with CAKI-1 is > 100 µM (inactive); in the assay with HCT-116 it was 40.6 µM (inactive); with NCI/ADR-RES, > 100 µM (inactive); in the assay with NCI-H460 it was > 100 µM (inactive); in the assay with HCT-15, 56.6 µM; in the assay on NCI-H522, 39.7 µM (inactive). Further, the GI50 is > 100 µM (inactive) with IGROV-1; > 100 µM (inactive) in the assay with RXF 393; 43.3 µM (inactive) in the assay on HCC 2998; > 100 µM (inactive) in the assay with T47D; 52 µM (inactive) with M14; > 100 µM (inactive) in the assay with A498. Moreover, the GI50 in the assay with SF-295 was > 100 µM (inactive); with SN12C, > 100 µM (inactive); in the assay with COLO 205 it was 37.2 µM (inactive); in the assay with MDA-MB-435 it was > 100 µM (inactive); with LOX IMVI, 92.3 µM (inactive); in the assay on SF-539 it was 33 µM (inactive).

As to `CCC(=O)/C(=C\I)c1ccccc1`, the GI50 with HCT-116 was 1.79 µM (inactive); in the assay on NCI/ADR-RES, 12.4 µM (inactive); in the assay with NCI-H460, 9.86 µM (inactive); in the assay on HCT-15, 1.8 µM; in the assay on IGROV-1 it was 1.97 µM (inactive); in the assay with HL-60 it was 0.995 µM (active). For the same compound, the GI50 is 1.52 µM (inactive) with RXF 393; 1.68 µM (inactive) in the assay with T47D; 2.28 µM (inactive) in the assay with M14; 18.1 µM (inactive) in the assay on A498; 18.5 µM (inactive) in the assay with SF-295; 2.16 µM (inactive) in the assay on SN12C. Further, the GI50 in the assay with COLO 205 is 2.05 µM (inactive); with MDA-MB-435, 3.36 µM (inactive); in the assay with LOX IMVI, 1.27 µM (inactive); with SF-539 it was 18.1 µM (inactive).

For `Cc1cc(C)n2nc3nc(N)c(C#N)c(-c4ccccc4)c3c2n1`, the GI50 in the assay on CAKI-1 is > 100 µM (inactive); in the assay with HCT-116, > 100 µM (inactive); in the assay with NCI/ADR-RES it was > 100 µM (inactive); in the assay with NCI-H460 it was > 100 µM (inactive); with HCT-15, more than 100 µM; with SR it was > 100 µM (inactive). Besides, the GI50 in the assay with NCI-H522, in the assay on IGROV-1, with HL-60, in the assay with RXF 393, with HCC 2998 and in the assay on M14 was > 100 µM (inactive) in each case. In addition, the GI50 with A498, with SF-295, with SN12C, in the assay with COLO 205, with MDA-MB-435 and in the assay on LOX IMVI was > 100 µM (inactive) throughout. Besides, the GI50 with SF-539 is > 100 µM (inactive).

As to `CCOC(=O)CNC(=O)CNC(=O)CNC(=O)CNNc1c(OCc2ccccc2)c(=O)c1=O`, the GI50 is > 100 µM (inactive) with CAKI-1; > 100 µM (inactive) in the assay with HCT-116; > 100 µM (inactive) in the assay with NCI/ADR-RES; more than 100 µM in the assay with HCT-15; > 100 µM (inactive) with NCI-H522; > 100 µM (inactive) with IGROV-1. Further, the GI50 in the assay with RXF 393, with HCC 2998, with T47D, with M14, with A498 and with SN12C was > 100 µM (inactive) in each case. In addition, the GI50 in the assay on COLO 205 and with MDA-MB-435 was > 100 µM (inactive) each time.

`N#Cc1nn(C(N)=O)c(N)c1C#N`: the GI50 in the assay on CAKI-1 was > 100 µM (inactive); in the assay on HCT-116, > 100 µM (inactive); in the assay with NCI/ADR-RES, > 100 µM (inactive); with NCI-H460, > 100 µM (inactive); in the assay with HCT-15, more than 100 µM; in the assay with SR, > 100 µM (inactive). In addition, the GI50 in the assay with NCI-H522, in the assay with IGROV-1, with HL-60, in the assay with HCC 2998, in the assay on T47D and in the assay on M14 was > 100 µM (inactive) throughout. The GI50 in the assay with A498, in the assay on SF-295, in the assay with SN12C, in the assay on COLO 205 and in the assay with SF-539 was > 100 µM (inactive) each time.

Turning to `CCOC(=O)/C(C(=O)Nc1cccc(C(F)(F)F)c1)=C(/N)N1CCOCC1`, the GI50 in the assay with CAKI-1 is > 100 µM (inactive); in the assay with HCT-116 it was > 100 µM (inactive); with NCI/ADR-RES it was > 100 µM (inactive); with NCI-H460 it was > 100 µM (inactive); in the assay on HCT-15, more than 100 µM; in the assay on NCI-H522 it was > 100 µM (inactive). Further, the GI50 in the assay on IGROV-1, in the assay with HL-60, with RXF 393, in the assay with HCC 2998, in the assay on T47D and in the assay on M14 was > 100 µM (inactive) throughout. Moreover, the GI50 with A498, with SF-295, with SN12C, in the assay on COLO 205, with MDA-MB-435 and with LOX IMVI was > 100 µM (inactive) in each case. The GI50 with SF-539 was > 100 µM (inactive).

As for `CCOc1cc(C=O)c2c(ccc3ccc(OC)c(OC)c32)c1OC`, the GI50 is 93.5 µM (inactive) with CAKI-1; 36 µM (inactive) with HCT-116; 17.5 µM (inactive) in the assay with NCI/ADR-RES; 20 µM (inactive) with NCI-H460; 49.7 µM with HCT-15; 38.5 µM (inactive) in the assay on NCI-H522. In addition, the GI50 in the assay on IGROV-1 is 89.9 µM (inactive); in the assay on HL-60, 24.4 µM (inactive); in the assay on RXF 393, > 100 µM (inactive); in the assay on HCC 2998, 83.8 µM (inactive); in the assay on T47D, 35.7 µM (inactive); in the assay on M14, 89.3 µM (inactive). The GI50 in the assay with SF-295 was 43.8 µM (inactive); in the assay on SN12C it was 70.6 µM (inactive); with COLO 205 it was 32.5 µM (inactive); in the assay on MDA-MB-435 it was 70.6 µM (inactive); in the assay on LOX IMVI it was 32.4 µM (inactive).

On to `CN(CCc1ccc(Br)cc1)CCN1CCCCC1`, for which the GI50 in the assay with CAKI-1 is 43.2 µM (inactive); in the assay on HCT-116, 17.7 µM (inactive); in the assay on NCI/ADR-RES, 46.5 µM (inactive); with NCI-H460, 37.9 µM (inactive); in the assay with HCT-15, 60.5 µM; in the assay on NCI-H522 it was 21.6 µM (inactive). The GI50 in the assay with IGROV-1 was 36.4 µM (inactive); in the assay on RXF 393, 36.4 µM (inactive); with HCC 2998 it was 33.7 µM (inactive); in the assay on T47D it was 39.7 µM (inactive); in the assay on M14 it was 22.8 µM (inactive); with A498, 21 µM (inactive). Also, the GI50 in the assay on SF-295 was 25.1 µM (inactive); with SN12C it was 81.1 µM (inactive); with COLO 205, 16.3 µM (inactive); with MDA-MB-435, 26.4 µM (inactive); with LOX IMVI, 28.6 µM (inactive); in the assay on SF-539, 27.3 µM (inactive).

These data come from ChEMBL document CHEMBL1201862, “PubChem BioAssay data set” (2004).
